Data taken from PubChem BioAssay AID330 (DTP/NCI, 2004).
“And” between values parts separate entries of the source, which are not always exact repeats. Equal values may be shown once. Toxic doses and inconclusive results are not listed.

Tested on: P388 leukemia ip, CD2F1 mice, survival T/C
Assay: NCI In Vivo Anticancer Drug Screen. Data for tumor model P388 Leukemia (intraperitoneal) in CD2F1 (CDF1) mice
Settings: endpoint: median survival time, higher = longer survival
Procedure, shortened: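 Mice carrying the transplanted tumor received test compound or vehicle. Survival was recorded in each group, and the value is the treated-group measurement divided by that of the vehicle-treated control group.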

[1] = dose: 50.0 mg/kg/injection, schedule: Q01DX009 (ip), vehicle: saline with Tween-80
[2] = dose: 100.0 mg/kg/injection, schedule: Q01DX009 (ip), vehicle: saline with Tween-80
[3] = dose: 200.0 mg/kg/injection, schedule: Q01DX009 (ip), vehicle: saline with Tween-80
[4] = dose: 25.0 mg/kg/injection, schedule: Q01DX005 (ip), vehicle: saline with Tween-80
[5] = dose: 50.0 mg/kg/injection, schedule: Q01DX005 (ip), vehicle: saline with Tween-80
[6] = dose: 100.0 mg/kg/injection, schedule: Q01DX005 (ip), vehicle: saline with Tween-80

## CC(C)(CCC(=O)O)C(=O)O
dose: 50.0 mg/kg/injection, schedule: Q01DX009 (ip), vehicle: saline sonified
  T/C: 91 % of control
dose: 200.0 mg/kg/injection, schedule: Q01DX009 (ip), vehicle: saline sonified
  T/C: 87 % of control

## CCCCCCCCCCCCCOC(=O)c1ccc(O)cc1
[1]
  T/C: 98 % of control
[2]
  T/C: 94 % of control
[3]
  T/C: 88 % of control

## C/C=C1\CN2CCC34c5ccccc5N5C(C6C7CC8N(CCC89c8ccccc8N(C(C)=O)C69)C/C7=C\C)OCC(C1CC23)C54 (stereo not drawn)
dose: 12.06 mg/kg/injection, schedule: Q01DX009 (ip), vehicle: saline with Tween-80
  T/C: 100 % of control
dose: 24.12 mg/kg/injection, schedule: Q01DX009 (ip), vehicle: saline with Tween-80
  T/C: 107 % of control
dose: 48.25 mg/kg/injection, schedule: Q01DX009 (ip), vehicle: saline with Tween-80
  T/C: 109 % of control

## c1ccc2[nH]c(N=Nc3cccc4c(N=Nc5cc6ccccc6[nH]5)cccc34)cc2c1
[1]
  T/C: 100 % of control
[2]
  T/C: 100 % of control
[3]
  T/C: 103 % of control

## C=CC[n+]1ccc(/C=N\NC(N)=S)c2ccccc21
[1]
  T/C: 116 % of control
[2]
  T/C: 110 % of control

## COc1cc(OC2OC(CO)C(O)C(O)C2O)ccc1/C=C\C(=O)c1ccc(O)cc1 (stereo not drawn)
dose: 100.0 mg/kg/injection, schedule: Q04DX002 (ip), vehicle: saline with Tween-80
  T/C: 96 % of control
dose: 200.0 mg/kg/injection, schedule: Q04DX002 (ip), vehicle: saline with Tween-80
  T/C: 90 % of control
dose: 400.0 mg/kg/injection, schedule: Q04DX002 (ip), vehicle: saline with Tween-80
  T/C: 91 % of control

## Oc1ccc(/C=C/c2cc(O)cc3c2C(c2cc(O)cc(O)c2)C(c2ccc(O)c(O)c2)O3)cc1 (stereo not drawn)
dose: 7.5 mg/kg/injection, schedule: Q01DX001 (ip), vehicle: Klucel + Tween-80
  T/C: 94 % of control
dose: 15.0 mg/kg/injection, schedule: Q01DX001 (ip), vehicle: Klucel + Tween-80
  T/C: 94 % of control
dose: 30.0 mg/kg/injection, schedule: Q01DX001 (ip), vehicle: Klucel + Tween-80
  T/C: 103 % of control

## Cc1cc(C)n2c(-c3ccccc3)c(C)c(C(N)=O)c2n1
dose: 60.0 mg/kg/injection, schedule: Q01DX005 (ip), vehicle: saline with Tween-80
  T/C: 98 % of control
dose: 120.0 mg/kg/injection, schedule: Q01DX005 (ip), vehicle: saline with Tween-80
  T/C: 99 % of control
dose: 240.0 mg/kg/injection, schedule: Q01DX005 (ip), vehicle: saline with Tween-80
  T/C: 100 % of control

## CCCCCCCCC(O)CCC (stereo not drawn)
dose: 100.0 mg/kg/injection, schedule: Q04DX003 (ip), vehicle: saline
  T/C: 100 % of control
dose: 200.0 mg/kg/injection, schedule: Q04DX003 (ip), vehicle: saline
  T/C: 100 % of control
dose: 400.0 mg/kg/injection, schedule: Q04DX003 (ip), vehicle: saline
  T/C: 100 % of control

## CCN(CC)CCOCCc1ccccc1
dose: 12.5 mg/kg/injection, schedule: Q01DX005 (ip), vehicle: saline with Tween-80
  T/C: 98 % of control
[4]
  T/C: 98 % of control
[5]
  T/C: 98 % of control and 100 % of control

## Cc1ccc2c(c1)C(=S)NC(=O)C2
dose: 12.5 mg/kg/injection, schedule: Q01DX009 (ip), vehicle: distilled water + Tween-80
  T/C: 87 % of control
dose: 50.0 mg/kg/injection, schedule: Q01DX009 (ip), vehicle: distilled water + Tween-80
  T/C: 93 % of control
dose: 100.0 mg/kg/injection, schedule: Q01DX009 (ip), vehicle: distilled water + Tween-80
  T/C: 91 % of control
dose: 200.0 mg/kg/injection, schedule: Q01DX009 (ip), vehicle: distilled water + Tween-80
  T/C: 95 % of control

## COC(=O)CC[C@@H](C)C1CC[C@H]2[C@@H]3CC[C@H]4C=C(O)C(=O)C[C@]4(C)[C@H]3C[C@H](OC(C)=O)[C@]12C (stereo partly drawn)
dose: 100.0 mg/kg/injection, schedule: Q04DX002 (ip), vehicle: Klucel (hydroxypropylcellulose) (HPC)
  T/C: 102 % of control
dose: 200.0 mg/kg/injection, schedule: Q04DX002 (ip), vehicle: Klucel (hydroxypropylcellulose) (HPC)
  T/C: 101 % of control
dose: 400.0 mg/kg/injection, schedule: Q04DX002 (ip), vehicle: Klucel (hydroxypropylcellulose) (HPC)
  T/C: 108 % of control

## CCCCOCN(CC(CC)CCCC)CC(CC)CCCC (stereo not drawn)
[5]
  T/C: 98 % of control
[6]
  T/C: 100 % of control
dose: 200.0 mg/kg/injection, schedule: Q01DX005 (ip), vehicle: saline with Tween-80
  T/C: 104 % of control

## ClC(Cl)(Cl)Cl
dose: 0.37 % in 0.5 ml injection vol, schedule: Q01DX009 (ip), vehicle: water
  T/C: 103 % of control
dose: 0.75 % in 0.5 ml injection vol, schedule: Q01DX009 (ip), vehicle: water
  T/C: 103 % of control
dose: 1.5 % in 0.5 ml injection vol, schedule: Q01DX009 (ip), vehicle: water
  T/C: 104 % of control

## CC(O)c1ccc(C(C)O)cc1 (stereo not drawn)
dose: 50.0 mg/kg/injection, schedule: Q01DX009 (ip), vehicle: saline
  T/C: 91 % of control
dose: 100.0 mg/kg/injection, schedule: Q01DX009 (ip), vehicle: saline
  T/C: 86 % of control
dose: 200.0 mg/kg/injection, schedule: Q01DX009 (ip), vehicle: saline
  T/C: 96 % of control

## CCC[CH2][Sn]1([CH2]CCC)[O]C(=O)c2c(Cl)c(Cl)c(Cl)c(Cl)c2C(=O)[O]1
dose: 1.56 mg/kg/injection, schedule: Q01DX005 (ip), vehicle: saline with Tween-80
  T/C: 110 % of control and 115 % of control
dose: 3.13 mg/kg/injection, schedule: Q01DX005 (ip), vehicle: saline with Tween-80
  T/C: 119 % of control and 120 % of control
dose: 6.25 mg/kg/injection, schedule: Q01DX005 (ip), vehicle: saline with Tween-80
  T/C: 119 % of control and 120 % of control

## O=C(O)c1cc(Cc2c[nH]c(=O)[nH]c2=O)ccc1O
[4]
  T/C: 111 % of control
[5]
  T/C: 111 % of control
[6]
  T/C: 101 % of control

## O=C1NC(=O)C2C1C(C(=O)O)C1C3C(=O)NC(=O)C3C1C2C(=O)O (stereo not drawn)
dose: 25.0 mg/kg/injection, schedule: Q01DX009 (ip), vehicle: saline with Tween-80
  T/C: 91 % of control
[1]
  T/C: 94 % of control
[2]
  T/C: 97 % of control
[3]
  T/C: 91 % of control and 92 % of control
dose: 400.0 mg/kg/injection, schedule: Q01DX009 (ip), vehicle: saline with Tween-80
  T/C: 96 % of control

## COc1ccc(CC(N)C(=O)OCc2ccccc2)cc1N(CCCl)CCCl (stereo not drawn)
dose: 1.56 mg/kg/injection, schedule: Q01DX009 (ip), vehicle: suspension in saline
  T/C: 97 % of control
dose: 3.12 mg/kg/injection, schedule: Q01DX009 (ip), vehicle: suspension in saline
  T/C: 95 % of control
dose: 6.25 mg/kg/injection, schedule: Q01DX009 (ip), vehicle: suspension in saline
  T/C: 100 % of control

## O=c1oc(-c2ccccc2)nc2cc(Cl)ccc12
dose: 100.0 mg/kg/injection, schedule: Q04DX003 (ip), vehicle: Klucel (hydroxypropylcellulose) (HPC)
  T/C: 100 % of control
dose: 200.0 mg/kg/injection, schedule: Q04DX003 (ip), vehicle: Klucel (hydroxypropylcellulose) (HPC)
  T/C: 90 % of control
dose: 400.0 mg/kg/injection, schedule: Q04DX003 (ip), vehicle: Klucel (hydroxypropylcellulose) (HPC)
  T/C: 107 % of control

## CC1C(O)=C(c2ccccc2)P(=O)(Cc2ccccc2)C1C (stereo not drawn)
dose: 60.0 mg/kg/injection, schedule: Q01DX005 (ip), vehicle: saline
  T/C: 101 % of control
dose: 120.0 mg/kg/injection, schedule: Q01DX005 (ip), vehicle: saline
  T/C: 100 % of control
dose: 240.0 mg/kg/injection, schedule: Q01DX005 (ip), vehicle: saline
  T/C: 93 % of control

## CCCCCCCCCCCCCCCCCCCCCC(=O)Nc1ccn(C2OC(CO)C(O)C2O)c(=O)n1 (stereo not drawn)
dose: 1.56 mg/kg/injection, schedule: Q01DX009 (ip), vehicle: saline with Tween-80
  T/C: 155 % of control
dose: 3.12 mg/kg/injection, schedule: Q01DX009 (ip), vehicle: saline with Tween-80
  T/C: 198 % of control and 209 % of control
dose: 6.25 mg/kg/injection, schedule: Q01DX009 (ip), vehicle: saline with Tween-80
  T/C: 106 % of control and 206 % of control and 235 % of control
dose: 12.5 mg/kg/injection, schedule: Q01DX009 (ip), vehicle: saline with Tween-80
  T/C: 256 % of control and 309 % of control
[2]
  T/C: 195 % of control

## S=c1ssc2ccccc12
dose: 100.0 mg/kg/injection, schedule: Q04DX003 (ip), vehicle: saline with Tween-80
  T/C: 100 % of control
dose: 200.0 mg/kg/injection, schedule: Q04DX003 (ip), vehicle: saline with Tween-80
  T/C: 109 % of control
dose: 400.0 mg/kg/injection, schedule: Q04DX003 (ip), vehicle: saline with Tween-80
  T/C: 109 % of control

## CN(C)CCCSc1ccccc1NC1=C(Cl)C(=O)C(Nc2ccccc2SCCCN(C)C)=C(Cl)C1=O
dose: 6.25 mg/kg/injection, schedule: Q01DX005 (ip), vehicle: Klucel (hydroxypropylcellulose) (HPC)
  T/C: 100 % of control
dose: 12.5 mg/kg/injection, schedule: Q01DX005 (ip), vehicle: Klucel (hydroxypropylcellulose) (HPC)
  T/C: 106 % of control
dose: 25.0 mg/kg/injection, schedule: Q01DX005 (ip), vehicle: Klucel (hydroxypropylcellulose) (HPC)
  T/C: 98 % of control
dose: 50.0 mg/kg/injection, schedule: Q01DX005 (ip), vehicle: Klucel (hydroxypropylcellulose) (HPC)
  T/C: 106 % of control
dose: 100.0 mg/kg/injection, schedule: Q01DX005 (ip), vehicle: Klucel (hydroxypropylcellulose) (HPC)
  T/C: 108 % of control
dose: 200.0 mg/kg/injection, schedule: Q01DX005 (ip), vehicle: Klucel (hydroxypropylcellulose) (HPC)
  T/C: 104 % of control
